{"source": "patent US11633370B2", "about": "“Use of scavengers of reactive gamma-ketoaldehydes to extend cell lifespan and healthspan” (Vanderbilt University, priority 2016, dated 2023)", "key": {"[1]": {"tested_on": "N2 WT C. elegans", "assay": "Lipofuscin autofluorescence measurement, N2", "format": "in vivo", "conditions": "100 μM or 500 μM SA versus vehicle control; p<0.01", "source_text": "To quantify this, the present inventors chose both a biochemical endpoint (lipofuscin autofluorescence) and a behavioral measure (pharyngeal pumping) that change predictably with aging and are associated with healthspan. The accumulation in the nematode intestinal epithelium of autofluorescent lipofuscin granules, a heterogeneous mixture of oxidized and crosslinked lipids and proteins and advanced glycation end products, is a known conserved phenomenon observed to increase with age. Visualization of lipofuscin granules is often used as an age-related assessment of healthspan. Lipofuscin autofluorescence were quantified over time (every 5 days) in N2 adult nematodes (10-20 per colony) in the presence of increasing doses of SA. SA response profiles were generated from integrating the area-under-the-curve (AUC) of fluorescent intensity as a function of time (FIG. 1C). […] For a behavioral/functional measurement of health, pharyngeal pumping rates were quantified. […] Pharyngeal pumping rates quantified in WT N2 worms established on OP50-seeded NGM agar plates with increasing concentrations of SA. The frequency of pharyngeal pumping was measured and recorded every fifth day as the animals aged.\nSynchronized late L4/early young adult worms were plated on FUDR containing SA-OP50-seeded NGM plates and worms were maintained at 20° C. […] The fluorescence was calculated using ImageJ software."}, "[2]": {"tested_on": "VC199 [sir-2.1(ok434)]", "assay": "Pharyngeal pumping rate, VC199", "format": "in vivo, C. elegans", "conditions": "increasing concentrations of SA, day 15; P=0.5", "method": "As with the N2 strain, the present inventors treated VC199 nematodes with increasing concentrations of SA and assessed the age-dependent accumulation of autofluorescent lipofuscin granules and decrease in pharyngeal pumping rate.\nC. elegans pharyngeal pumping rate assays were performed on 60-mm agar plates with bacterial lawns at room temperature. Every fifth day, worms were transferred to fresh bacteria-seeded NGM plates, and incubated at 25° C. for 10 min in order to equilibrate feeding rates before measurement. After 10 min incubation, worms were observed under the Zeiss TLB 3.1 microscope with focus on the pharynx. The number of contractions in the terminal bulb of the pharynx was counted for 20 s and then plotted."}, "[3]": {"tested_on": "RB981 [F19F10.5(ok888) V]", "assay": "Longevity assay, ets-7 gene knock-out strain", "format": "in vivo, C. elegans", "conditions": "500 μM SA; 0 μM SA 16 days; p>0.05", "source_text": "First, to validate the microarray results, the present inventors performed real-time RT-PCR on four genes, siah-1, sma-4, F13D12.6, and ets-7 (FIG. 6B). […] Messenger RNA levels for siah-1 and sma-4 were decreased by nearly 25%, as well as F13D12.6 and ets-7 were increased by nearly 25% by SA administration (p<0.05). Pathway Analysis using Gene Ontology (GO) with WEB-based Gene SeT Analysis Toolkit (WEBGESTALT <http://bioinfo.vanderbilt.edu/webgestalt/>) highlighted the metabolic process, lipid metabolic process, proteolysis pathways among many others as being altered favorably by the administration of SA (see Supplemental Data). From the array data confirmed by RT-PCR, the present inventors identified the ETS class transcription factor ETS-7 as a protein of interest. […] In order to test this, the present inventors carried out real-time RT-PCR quantification of ets-7 in non-functional SIR-2.1 mutant nematodes treated with increasing doses of SA (FIG. 6E). […]\nSurvival cultures were grown on 60-mm agar plates; after the late-stage L4/young adult molt, approximately 100 adults were transferred onto SA-OP50-seeded NGM plates. […] Worms were maintained at 20° C. and live worms were counted during transfer to freshly made SA-OP50-NGM agar plates every 2-3 days. Survival was scored as movement upon slight touch with the platinum wire. […]"}, "[4]": {"tested_on": "N2 WT C. elegans", "assay": "Longevity assay, wild-type N2 worms", "format": "in vivo", "conditions": "for increase in median lifespan: continuous from Day 1 of adulthood until natural death, versus 16 days; for median lifespan: control 16 days", "method": "C. elegans strains were cultured at 20° C. on standard nematode growth media (NGM) agar plates seeded with Escherichia coli strain NA22. The following strains were used in this work: wild-type C. elegans Bristol strain (N2), sir-2.1(ok434) IV, F19F10.5(ok888) V, and daf-16(mu86). Strains were obtained from the Caenorhabditis Genetics Center (University of Minnesota, St. Paul, Minn.). For generating cultures of 15-day-old (Day 15) adult worms, synchronized late-stage L4s/early young adult worms were transferred to peptone enriched 15 cm plates containing UV-irradiated OP50 E. coli and 0.12 mM 5-fluoro-2′-deoxyuridine (FUDR) to inhibit progeny production[88] with or without drug until harvest.\nNematodes grown on NGM-agar plates containing 0.5% peptone, were harvested, and eggs were isolated by alkaline hypochlorite with 0.5 N NaOH, 1% hypochlorite; 8 min at 23° C. The recovered eggs were rinsed in M9 buffer and placed on fresh agar plates seeded with E. coli strain OP50 and maintained at 20° C. until late-L4/young adult stage. After the late L4/young adult molt, worms were transferred to peptone enriched 15 cm plates containing 0.12 mM FUDR, OP50 E. coli, and varying concentrations of SA. Salicylamine drug plates were made fresh before transfer by spreading SA on top of the agar and plates were allowed to dry. E. coli strain OP50 was exposed to UV radiation for 30 minutes to kill the bacteria before seeding onto the SA-FUDR NGM agar plates. Worms were exposed to SA throughout its life until harvest by transferring worms to fresh SA-FUDR-OP50 NGM plates every other day.\nSurvival cultures were grown on 60-mm agar plates; after the late-stage L4/young adult molt, approximately 100 adults were transferred onto SA-OP50-seeded NGM plates. Salicylamine drug plates were made fresh before transfer by spreading SA on top of the agar. Plates were allowed to dry before seeding with UV-irradiated OP50 bacteria. Worms were maintained at 20° C. and live worms were counted during transfer to freshly made SA-OP50-NGM agar plates every 2-3 days. Survival was scored as movement upon slight touch with the platinum wire. Worms were maintained until death."}}, "data": [{"smiles": "NCc1ccccc1O", "note": "[SA, salicylamine]", "values": [{"measurement": "age-associated lipofuscin accumulation (AUC of autofluorescence over time)", "setting": "[1]", "result": "significant reduction"}, {"measurement": "pharyngeal pumping rate", "setting": "[2]", "result": "failed to preserve pharyngeal pumping rate"}, {"measurement": "median lifespan", "setting": "[3]", "result": 15, "unit": "days"}, {"measurement": "increase in median lifespan", "setting": "[4]; 50 μM SA", "result": 18, "unit": "%"}, {"measurement": "median lifespan", "setting": "[4]; 50 μM SA", "result": 19, "unit": "days"}, {"measurement": "increase in median lifespan", "setting": "[4]; 100 μM SA, p<0.05", "result": 32, "unit": "%"}, {"measurement": "median lifespan", "setting": "[4]; 100 μM SA", "result": 21, "unit": "days"}, {"measurement": "increase in median lifespan", "setting": "[4]; 500 μM SA, p<0.01", "result": 56, "unit": "%"}, {"measurement": "median lifespan", "setting": "[4]; 500 μM SA", "result": 25, "unit": "days"}]}]}
